Test results reported in ChEMBL document CHEMBL3868599, “Strategy for designing selective α-l-rhamnosidase inhibitors: Synthesis and biological evaluation of l-DMDP cyclic isothioureas” (Bioorg Med Chem, 2017).
Each block holds one compound with its values, some of them ahead of it.

Columns and labels:
[1] = biological target: T1, Beta-galactosidase (Bos taurus) (UniProt Q58D55); assay: Inhibition of bovine liver beta-galactosidase at 1000 uM using p-nitrophenyl-glycoside as substrate by spectrophotometric method
T1 sequence (whole entry): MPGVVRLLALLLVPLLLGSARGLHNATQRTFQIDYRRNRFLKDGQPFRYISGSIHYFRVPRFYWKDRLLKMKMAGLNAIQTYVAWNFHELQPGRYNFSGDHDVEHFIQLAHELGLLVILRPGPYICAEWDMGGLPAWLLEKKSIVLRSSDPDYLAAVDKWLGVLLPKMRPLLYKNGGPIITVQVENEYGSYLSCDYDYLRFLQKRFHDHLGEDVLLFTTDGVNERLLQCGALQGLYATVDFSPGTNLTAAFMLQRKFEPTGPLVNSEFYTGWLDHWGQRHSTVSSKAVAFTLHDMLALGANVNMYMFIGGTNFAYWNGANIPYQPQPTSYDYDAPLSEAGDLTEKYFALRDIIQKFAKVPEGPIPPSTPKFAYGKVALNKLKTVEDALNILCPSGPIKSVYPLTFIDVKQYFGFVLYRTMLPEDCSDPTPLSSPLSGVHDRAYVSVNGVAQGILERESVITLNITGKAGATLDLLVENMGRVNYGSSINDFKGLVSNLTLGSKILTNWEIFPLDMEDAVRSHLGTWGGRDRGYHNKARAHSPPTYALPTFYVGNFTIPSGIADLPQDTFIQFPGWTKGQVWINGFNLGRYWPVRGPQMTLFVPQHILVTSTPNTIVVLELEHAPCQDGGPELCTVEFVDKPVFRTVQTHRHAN

Prunus dulcis [2] = assay: Inhibition of almond beta-glucosidase at 1000 uM using p-nitrophenyl-glycoside as substrate by spectrophotometric method
[3] = Inhibition of Penicillium decumbens alpha-L-rhamnosidase using p-nitrophenyl-glycoside as substrate by spectrophotometric method
[4] = Inhibition of human lysosomal beta-glucosidase using 4-methylumbelliferyl-beta-D-glucopyranoside as substrate preincubated for 45 mins followed by substrate addition measured after 30 mins by fluorescence spectrophotometric method
Bos taurus = organism: Bos taurus; assay: Inhibition of bovine liver beta-glucosidase at 1000 uM using p-nitrophenyl-glycoside as substrate by spectrophotometric method
Rattus norvegicus [5] = organism: Rattus norvegicus; assay: Inhibition of rat intestinal maltase assessed as D-glucose level at 1000 uM using maltose as substrate measured after 10 to 30 mins
[6] = biological target: T2, Tissue alpha-L-fucosidase (Bos taurus) (UniProt Q2KIM0); assay: Inhibition of bovine kidney alpha-L-fucosidase at 1000 uM using p-nitrophenyl-glycoside as substrate by spectrophotometric method
T2 sequence (whole entry): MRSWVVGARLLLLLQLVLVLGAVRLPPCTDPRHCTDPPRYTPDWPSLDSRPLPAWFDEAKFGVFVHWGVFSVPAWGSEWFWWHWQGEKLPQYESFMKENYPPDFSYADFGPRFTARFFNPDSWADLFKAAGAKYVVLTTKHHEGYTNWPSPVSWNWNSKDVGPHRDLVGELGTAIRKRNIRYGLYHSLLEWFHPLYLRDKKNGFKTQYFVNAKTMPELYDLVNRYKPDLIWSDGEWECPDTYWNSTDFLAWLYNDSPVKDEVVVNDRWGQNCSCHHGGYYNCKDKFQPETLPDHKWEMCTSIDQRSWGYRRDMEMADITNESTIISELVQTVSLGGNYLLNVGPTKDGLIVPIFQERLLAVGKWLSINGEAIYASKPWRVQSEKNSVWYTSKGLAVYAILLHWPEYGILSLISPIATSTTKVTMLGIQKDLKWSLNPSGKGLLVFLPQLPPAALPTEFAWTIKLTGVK

Oryza sativa [7] = assay: Inhibition of rice alpha-glucosidase at 1000 uM using p-nitrophenyl-glycoside as substrate by spectrophotometric method
Aspergillus niger [8] = assay: Inhibition of Aspergillus niger amyloglucosidase assessed as D-glucose level at 1000 uM using maltose as substrate measured after 10 to 30 mins
Escherichia coli [9] = assay: Inhibition of Escherichia coli beta-glucuronidase at 1000 uM using p-nitrophenyl-glycoside as substrate by spectrophotometric method
[10] = biological target: T3, Uncharacterized protein (Sus scrofa) (UniProt I3LIR5); assay: Inhibition of porcine kidney trehalase assessed as D-glucose level at 1000 uM using maltose as substrate measured after 10 to 30 mins
T3 sequence (whole entry): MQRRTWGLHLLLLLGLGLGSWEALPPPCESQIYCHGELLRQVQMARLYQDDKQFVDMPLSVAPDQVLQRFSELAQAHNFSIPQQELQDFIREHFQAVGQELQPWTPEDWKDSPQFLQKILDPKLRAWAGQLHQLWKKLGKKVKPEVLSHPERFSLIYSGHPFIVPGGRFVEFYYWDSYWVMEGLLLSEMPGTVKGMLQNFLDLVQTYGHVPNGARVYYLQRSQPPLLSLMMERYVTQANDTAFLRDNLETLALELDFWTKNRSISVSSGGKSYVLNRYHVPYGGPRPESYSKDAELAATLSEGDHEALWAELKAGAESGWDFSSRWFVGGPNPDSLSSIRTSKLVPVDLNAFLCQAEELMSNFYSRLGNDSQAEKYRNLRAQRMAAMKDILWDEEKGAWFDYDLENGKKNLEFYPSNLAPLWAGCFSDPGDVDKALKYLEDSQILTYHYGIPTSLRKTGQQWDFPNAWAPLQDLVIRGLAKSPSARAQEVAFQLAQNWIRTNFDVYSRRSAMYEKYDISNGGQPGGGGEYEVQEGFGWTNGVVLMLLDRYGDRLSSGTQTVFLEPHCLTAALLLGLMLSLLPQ

Escherichia coli [11] = assay: Inhibition of Escherichia coli beta-glucuronidase at 100 uM using p-nitrophenyl-glycoside as substrate by spectrophotometric method
Rattus norvegicus [12] = organism: Rattus norvegicus; assay: Inhibition of rat intestinal maltase assessed as D-glucose level at 100 uM using maltose as substrate measured after 10 to 30 mins
Homo sapiens [13] = organism: Homo sapiens; assay: Inhibition of human lysosomal beta-glucosidase at 100 uM using 4-methylumbelliferyl-beta-D-glucopyranoside as substrate preincubated for 45 mins followed by substrate addition measured after 30 mins by fluorescence spectrophotometric method
Prunus dulcis [14] = assay: Inhibition of almond beta-glucosidase at 100 uM using p-nitrophenyl-glycoside as substrate by spectrophotometric method
Aspergillus niger [15] = assay: Inhibition of Aspergillus niger amyloglucosidase assessed as D-glucose level at 100 uM using maltose as substrate measured after 10 to 30 mins
[16] = biological target: T2, Tissue alpha-L-fucosidase (Bos taurus); assay: Inhibition of bovine kidney alpha-L-fucosidase at 100 uM using p-nitrophenyl-glycoside as substrate by spectrophotometric method
[17] = Inhibition of bovine liver beta-glucosidase using p-nitrophenyl-glycoside as substrate by spectrophotometric method; set-up: species or system Bos taurus
Beta-galactosidase = biological target: T4, Beta-galactosidase (Bos taurus, UniProt Q58D55); assay: Inhibition of bovine liver beta-galactosidase using p-nitrophenyl-glycoside as substrate by spectrophotometric method
T4 sequence (Q58D55 whole entry): T1 sequence (whole entry)

[18] = biological target: T3, Uncharacterized protein (Sus scrofa); assay: Inhibition of porcine kidney trehalase assessed as D-glucose level at 100 uM using maltose as substrate measured after 10 to 30 mins
Oryza sativa [19] = assay: Inhibition of rice alpha-glucosidase at 100 uM using p-nitrophenyl-glycoside as substrate by spectrophotometric method
Penicillium decumbens [20] = assay: Inhibition of Penicillium decumbens alpha-L-rhamnosidase at 1000 uM using p-nitrophenyl-glycoside as substrate by spectrophotometric method
Homo sapiens [21] = organism: Homo sapiens; assay: Inhibition of human lysosomal beta-glucosidase at 1000 uM using 4-methylumbelliferyl-beta-D-glucopyranoside as substrate preincubated for 45 mins followed by substrate addition measured after 30 mins by fluorescence spectrophotometric method
Penicillium decumbens [22] = assay: Inhibition of Penicillium decumbens alpha-L-rhamnosidase at 100 uM using p-nitrophenyl-glycoside as substrate by spectrophotometric method
[23] = Inhibition of Penicillium decumbens alpha-L-rhamnosidase

Compound: CCCCCCCCCCCC/N=C1/SC[C@H]2[C@H](O)[C@@H](O)[C@H](CO)N12
inhibition (Escherichia coli [11]): < 50% | inhibition (Rattus norvegicus [12]): < 50% | IC50 [3]: 0.46 µM | inhibition (Homo sapiens [13]): < 50% | inhibition (Prunus dulcis [14]): < 50% | inhibition (Aspergillus niger [15]): < 50% | inhibition [16]: < 50% | IC50 [17]: 9.5 µM | IC50 (Beta-galactosidase): 11 µM | inhibition [18]: < 50% | inhibition (Oryza sativa [19]): < 50%

Compound: CCCCNC(=S)N1[C@H](CO)[C@@H](O)[C@H](O)[C@H]1CO
inhibition [1]: < 50% | inhibition (Penicillium decumbens [20]): < 50% | inhibition (Prunus dulcis [2]): < 50% | inhibition (Homo sapiens [21]): < 50% | inhibition (Bos taurus): < 50% | inhibition (Rattus norvegicus [5]): < 50% | inhibition [6]: < 50% | inhibition (Oryza sativa [7]): < 50% | inhibition (Aspergillus niger [8]): < 50% | inhibition (Escherichia coli [9]): < 50% | inhibition [10]: < 50%

Compound: CCCCCCCCCCNC(=S)N1[C@@H](CO)[C@H](O)[C@@H](O)[C@@H]1CO
inhibition (Escherichia coli [11]): < 50% | inhibition (Rattus norvegicus [12]): < 50% | IC50 [4]: 65 µM | inhibition (Penicillium decumbens [22]): < 50% | inhibition (Prunus dulcis [14]): < 50% | inhibition (Aspergillus niger [15]): < 50% | inhibition [16]: < 50% | IC50 [17]: 16 µM | IC50 (Beta-galactosidase): 61 µM | inhibition [18]: < 50% | inhibition (Oryza sativa [19]): < 50%

Compound: C[C@H]1N[C@@H](CO)[C@H](O)[C@H](O)[C@H]1O
IC50 [23]: 850 µM

Compound: C[C@@H]1C[C@H](O)[C@H]2[C@@H](O)[C@@H](O)CN2C1
IC50 [23]: 0.032 to 0.034 µM

Compound: COc1ccc(C[C@@H]2NC[C@H](O)[C@H]2O)cc1
IC50 [23]: 3.7 µM

Second part, the compound after the results:

inhibition [1]: < 50% | inhibition (Prunus dulcis [2]): < 50% | IC50 [3]: 494 µM | IC50 [4]: 16 µM | inhibition (Bos taurus): < 50% | inhibition (Rattus norvegicus [5]): < 50% | inhibition [6]: < 50% | inhibition (Oryza sativa [7]): < 50% | inhibition (Aspergillus niger [8]): < 50% | inhibition (Escherichia coli [9]): < 50% | inhibition [10]: < 50%
Compound: CCCCCC/N=C1/SC[C@@H]2[C@@H](O)[C@H](O)[C@@H](CO)N12

IC50 [3]: 1.2 µM
Compound: Cc1ccc(C/N=C2/SC[C@H]3[C@H](O)[C@@H](O)[C@H](CO)N23)cc1

inhibition (Escherichia coli [11]): < 50% | inhibition (Rattus norvegicus [12]): < 50% | IC50 [3]: 67 µM | IC50 [4]: 1 µM | inhibition (Prunus dulcis [14]): < 50% | inhibition (Aspergillus niger [15]): < 50% | inhibition [16]: < 50% | IC50 [17]: 63 µM | IC50 (Beta-galactosidase): 32 µM | inhibition [18]: < 50% | inhibition (Oryza sativa [19]): < 50%
Compound: CCCCCCCCCCCC/N=C1/SC[C@@H]2[C@@H](O)[C@H](O)[C@@H](CO)N12

IC50 [3]: 2.5 µM
Compound: OC[C@H]1[C@H](O)[C@@H](O)[C@@H]2CS/C(=N/Cc3ccccc3Cl)N12

inhibition [1]: < 50% | inhibition (Penicillium decumbens [20]): < 50% | inhibition (Prunus dulcis [2]): < 50% | IC50 [4]: 532 µM | inhibition (Bos taurus): < 50% | inhibition (Rattus norvegicus [5]): < 50% | inhibition [6]: < 50% | inhibition (Oryza sativa [7]): < 50% | inhibition (Aspergillus niger [8]): < 50% | inhibition (Escherichia coli [9]): < 50% | inhibition [10]: < 50%
Compound: CCCC/N=C1/SC[C@@H]2[C@@H](O)[C@H](O)[C@@H](CO)N12

IC50 [3]: 1.6 µM
Compound: COc1ccc(C/N=C2/SC[C@H]3[C@H](O)[C@@H](O)[C@H](CO)N23)cc1

IC50 [3]: 0.89 µM
Compound: OC[C@H]1[C@H](O)[C@@H](O)[C@@H]2CS/C(=N/Cc3ccc(Cl)cc3)N12
